Literature values, collected in patent US20120295796A1, “System and Method of Predicting Chemical Interaction and Functionality of Molecules” (VASSA INFORMATICS, priority 2010, published 2012).

Experiments:
[1] = target: EGFR (Homo sapiens, UniProt P00533); conditions: search utilizing the entire binding site
[2] = target: T1, HMG-CoA reductase (Homo sapiens, UniProt P04035); conditions: hit of Lipitor search, not structurally similar to Lipitor
T1 sequence (P04035 426-888 limits assumed): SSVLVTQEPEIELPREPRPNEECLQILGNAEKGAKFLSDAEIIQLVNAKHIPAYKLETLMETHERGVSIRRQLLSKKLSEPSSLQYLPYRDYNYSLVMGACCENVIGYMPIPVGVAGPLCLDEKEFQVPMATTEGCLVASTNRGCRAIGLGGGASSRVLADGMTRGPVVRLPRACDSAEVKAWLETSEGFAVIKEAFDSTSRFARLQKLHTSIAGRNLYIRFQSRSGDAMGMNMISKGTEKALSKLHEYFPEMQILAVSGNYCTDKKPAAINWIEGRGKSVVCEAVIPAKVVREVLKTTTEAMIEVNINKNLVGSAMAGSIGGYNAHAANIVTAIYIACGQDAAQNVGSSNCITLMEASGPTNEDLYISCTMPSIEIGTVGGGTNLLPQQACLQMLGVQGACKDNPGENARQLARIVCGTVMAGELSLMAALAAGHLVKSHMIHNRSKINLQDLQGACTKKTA

Chain of EGFR (P00533 25-1210): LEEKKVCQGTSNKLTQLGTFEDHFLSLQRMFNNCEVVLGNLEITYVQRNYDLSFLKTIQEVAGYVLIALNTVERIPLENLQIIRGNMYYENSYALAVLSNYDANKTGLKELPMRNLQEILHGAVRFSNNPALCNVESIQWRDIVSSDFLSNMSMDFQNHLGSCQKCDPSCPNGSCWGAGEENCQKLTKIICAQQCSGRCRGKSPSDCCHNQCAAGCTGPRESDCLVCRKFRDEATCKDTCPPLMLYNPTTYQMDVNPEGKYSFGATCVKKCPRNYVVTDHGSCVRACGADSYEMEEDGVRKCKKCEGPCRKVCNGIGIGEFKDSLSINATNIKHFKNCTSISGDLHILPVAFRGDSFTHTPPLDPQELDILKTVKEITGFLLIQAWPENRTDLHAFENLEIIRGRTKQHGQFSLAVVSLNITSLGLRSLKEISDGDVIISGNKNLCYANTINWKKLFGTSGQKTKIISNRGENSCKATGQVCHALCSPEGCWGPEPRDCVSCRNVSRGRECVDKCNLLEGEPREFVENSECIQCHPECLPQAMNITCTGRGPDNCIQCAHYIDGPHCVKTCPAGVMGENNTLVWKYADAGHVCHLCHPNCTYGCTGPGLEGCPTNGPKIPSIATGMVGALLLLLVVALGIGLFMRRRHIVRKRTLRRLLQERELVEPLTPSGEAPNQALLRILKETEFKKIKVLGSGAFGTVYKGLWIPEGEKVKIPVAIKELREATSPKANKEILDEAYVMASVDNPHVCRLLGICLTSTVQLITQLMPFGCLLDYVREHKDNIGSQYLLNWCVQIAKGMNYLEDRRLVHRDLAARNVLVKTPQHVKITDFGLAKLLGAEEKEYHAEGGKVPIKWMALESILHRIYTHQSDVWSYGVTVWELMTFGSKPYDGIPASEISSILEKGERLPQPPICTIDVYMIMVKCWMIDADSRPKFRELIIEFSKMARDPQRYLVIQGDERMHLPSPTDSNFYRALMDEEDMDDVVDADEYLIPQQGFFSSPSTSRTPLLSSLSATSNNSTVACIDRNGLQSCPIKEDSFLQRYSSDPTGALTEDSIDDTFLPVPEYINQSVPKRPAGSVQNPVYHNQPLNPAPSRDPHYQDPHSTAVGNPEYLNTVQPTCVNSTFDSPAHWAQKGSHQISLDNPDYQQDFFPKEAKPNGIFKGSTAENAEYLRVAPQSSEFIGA

binder status at the Tarceva binding site (ADP binding site) [1]	known binding to HMG-CoA reductase (search result category Known Binders) [2]	Structure (SMILES)
already known or suspected as binders	–	Nc1ncnc2c1ncn2[C@@H]1O[C@H](COP(=O)(O)OP(=O)(O)O)[C@@H](O)[C@H]1O [ADP]
already known or suspected as binders	–	Nc1ncnc2c1ncn2[C@@H]1O[C@H](COP(=O)(O)O)[C@@H](O)[C@H]1O [AMP]
–	binds HinG-CoA reductase	CC(C)(COP(=O)(O)OP(=O)(O)OC[C@H]1O[C@@H](n2cnc3c(N)ncnc32)[C@H](O)[C@@H]1OP(=O)(O)O)[C@@H](O)C(=O)NCCC(=O)NCCS [Coenzyme A]

Structure (SMILES)	binder status at the Tarceva binding site (ADP binding site) [1]	known binding to HMG-CoA reductase (search result category Known Binders) [2]
Nc1ncnc2c1ncn2[C@@H]1O[C@H](COP(=O)(O)OP(=O)(O)OP(=O)(O)O)[C@@H](O)[C@H]1O [ATP]	already known or suspected as binders	–
